In brackets after ≈: the same amount, converted by molar mass. Values belong to the compound of their own block, whether it stands above or below them.
How the values were obtained:
[1] = test system: HT-29; experiment: Antiproliferative activity against human HT-29 cells assessed as reduction in cell viability after 72 hrs by MTT assay; type: functional, cell-based; conditions: HT-29, 72 h
[2] = test system: MCF7; experiment: Antiproliferative activity against human MCF7 cells assessed as reduction in cell viability after 72 hrs by MTT assay; type: functional, cell-based; conditions: MCF7, 72 h
[3] = test system: SW480; experiment: Antiproliferative activity against human SW480 cells assessed as reduction in cell viability after 48 hrs by MTT assay; type: functional, cell-based; conditions: SW480, 48 h
[4] = test system: MCF7; experiment: Antiproliferative activity against human MCF7 cells assessed as reduction in cell viability after 48 hrs by MTT assay; type: functional, cell-based; conditions: MCF7, 48 h
[5] = test system: A549; experiment: Antiproliferative activity against human A549 cells assessed as reduction in cell viability after 48 hrs by MTT assay; type: functional, cell-based; conditions: A549, 48 h
[6] = Antiproliferative activity against human SMCC7721 cells assessed as reduction in cell viability after 48 hrs by MTT assay; type: functional, cell-based
[7] = test system: MDA-MB-231; experiment: Antiproliferative activity against human MDA-MB-231 cells assessed as reduction in cell viability after 48 hrs by MTT assay; type: functional, cell-based; conditions: MDA-MB-231, 48 h
[8] = test system: HEK293; experiment: Cytotoxicity against HEK293 cells assessed as reduction in cell viability after 48 hrs by MTT assay; type: cell-based; conditions: Homo sapiens, HEK293, 48 h
[9] = test system: DU-145; experiment: Antiproliferative activity against human DU145 cells assessed as reduction in cell viability after 48 hrs by MTT assay; type: functional, cell-based; conditions: DU-145, 48 h
[10] = test system: HCT-116; experiment: Antiproliferative activity against human HCT116 cells assessed as reduction in cell viability after 48 hrs by MTT assay; type: functional, cell-based; conditions: HCT-116, 48 h
[11] = test system: T47D; experiment: Antiproliferative activity against human T47D cells assessed as reduction in cell viability after 48 hrs by MTT assay; type: functional, cell-based
[12] = test system: Caco-2; experiment: Antiproliferative activity against human Caco2 cells assessed as reduction in cell viability after 48 hrs by MTT assay; type: functional, cell-based; conditions: Caco-2, 48 h
[13] = test system: PC-3; experiment: cells; type: functional, cell-based; conditions: Homo sapiens, PC-3, 48 h
Description: Antiproliferative activity against human PC3 cells assessed as reduction in cell viability after 48 hrs by MTT assay

[14] = test system: HT-29; experiment: Antiproliferative activity against human HT-29 cells assessed as reduction in cell viability after 48 hrs by MTT assay; type: functional, cell-based; conditions: HT-29, 48 h
[15] = test system: U-87 MG; experiment: Antiproliferative activity against human U87MG cells assessed as reduction in cell viability after 48 hrs by MTT assay; type: functional, cell-based, U-87MG ATCC
[16] = test system: DU-145; experiment: Antiproliferative activity against human DU145 cells by SRB assay; type: functional, cell-based
[17] = test system: A549; experiment: Antiproliferative activity against human A549 cells by SRB assay; type: functional, cell-based
[18] = test system: HepG2; experiment: Antiproliferative activity against human HepG2 cells by SRB assay; type: functional, cell-based
[19] = test system: HeLa; experiment: Antiproliferative activity against human HeLa cells by SRB assay; type: functional, cell-based
[20] = test system: SK-BR-3; experiment: Antiproliferative activity against human SKBR3 cells assessed as reduction in cell viability after 72 hrs by MTT assay; type: functional, cell-based; conditions: SK-BR-3, 72 h
[21] = test system: SUM-159-PT; experiment: Antiproliferative activity against human SUM159 cells assessed as reduction in cell viability after 72 hrs by MTT assay; type: functional, cell-based
[22] = test system: KG-1a; experiment: Antiproliferative activity against human KG1a cells assessed as reduction in cell viability after 72 hrs by MTT assay; type: functional, cell-based
[23] = test system: MGC-803; experiment: Antiproliferative activity against human MGC803 cells by MTT assay; type: functional, cell-based
[24] = test system: HepG2; experiment: Antiproliferative activity against human HepG2 cells by MTT assay; type: functional, cell-based
[25] = test system: SK-N-SH; experiment: Antiproliferative activity against human SK-N-SH cells by MTT assay; type: functional, cell-based
[26] = test system: T47D; experiment: Antiproliferative activity against human T47D cells assessed as reduction in cell viability after 72 hrs by MTT assay; type: functional, cell-based
[27] = test system: MDA-MB-231; experiment: Antiproliferative activity against human MDA-MB-231 cells by SRB assay; type: functional
[28] = test system: HCT-116; experiment: Antiproliferative activity against human HCT116 cells by MTT assay; type: functional, cell-based
[29] = test system: MCF7; experiment: cells; type: functional, cell-based; conditions: Homo sapiens
Description: Antiproliferative activity against human MCF7 cells by MTT assay

[30] = test system: C2C12; experiment: Cytotoxicity against mouse C2C12 cells assessed as reduction in cell viability after 48 hrs by MTT assay; type: cell-based; conditions: C2C12, 48 h

IC50 [1]: 5.29 µM | IC50 [2]: 43.3 µM
SMILES: CNC(=O)c1cc(Oc2ccc(NC(=O)Nc3ccc(Cl)c(C(F)(F)F)c3)cc2)ccn1 [SORAFENIB]

IC50 [3]: 0.49 to 6.7 µM | IC50 [4]: 0.49 to 6.7 µM | IC50 [5]: 0.49 to 6.7 µM
SMILES: COc1cc([C@@H]2c3cc4c(cc3[C@H](n3cc(CO[C@@H]5O[C@H](COC(C)(C)C)[C@@H](OC(C)(C)C)[C@H](OC(C)(C)C)[C@H]5OC(C)(C)C)nn3)[C@H]3COC(=O)[C@H]23)OCO4)cc(OC)c1OC
IC50 [6]: 0.49 to 6.7 µM

IC50 [7]: 0.51 to 3.98 µM | IC50 [5]: 0.51 to 3.98 µM | IC50 [9]: 0.51 to 3.98 µM | IC50 [10]: 0.51 to 3.98 µM
SMILES: COc1cc(-c2ccc(Cn3cc(C(=O)c4c(-c5ccccc5)nc5ccccn45)nn3)cc2)cc(OC)c1OC
IC50 [8]: 63.5 µM

IC50 [11]: 33 to 154 µM | IC50 [12]: 33 to 154 µM | IC50 [4]: 33 to 154 µM | IC50 [10]: 33 to 154 µM
SMILES: O=C(Cn1cc(C(O)(c2ccccc2)c2ccccc2)nn1)N1CCN(c2nc3ccccc3s2)CC1

IC50 [13]: 0.86 to 3.71 µM | IC50 [14]: 0.86 to 3.71 µM | IC50 [15]: 0.86 to 3.71 µM | IC50 [5]: 0.86 to 3.71 µM
SMILES: COc1ccc(-c2nn(-c3ccccc3)cc2C(=O)c2cn(Cc3ccc(OC)c(OC)c3)nn2)cc1

IC50 [11]: 33 to 154 µM | IC50 [12]: 33 to 154 µM | IC50 [4]: 33 to 154 µM | IC50 [10]: 33 to 154 µM
SMILES: O=C(Cn1cc(CO)nn1)N1CCN(c2nc3ccccc3s2)CC1

IC50 [11]: 33 to 154 µM | IC50 [12]: 33 to 154 µM | IC50 [4]: 33 to 154 µM | IC50 [10]: 33 to 154 µM
SMILES: CCOC(=O)c1cn(CC(=O)N2CCN(c3nc4ccccc4s3)CC2)nn1

IC50 [13]: 0.86 to 3.71 µM | IC50 [14]: 0.86 to 3.71 µM | IC50 [15]: 0.86 to 3.71 µM | IC50 [5]: 0.86 to 3.71 µM
SMILES: COc1ccc(Cn2cc(C(=O)c3cn(-c4ccccc4)nc3-c3ccc(F)cc3)nn2)cc1OC

IC50 [13]: 0.86 to 3.71 µM | IC50 [14]: 0.86 to 3.71 µM | IC50 [15]: 0.86 to 3.71 µM | IC50 [5]: 0.86 to 3.71 µM
SMILES: COc1ccc(Cn2cc(C(=O)c3cn(-c4ccccc4)nc3-c3ccc(Cl)cc3)nn2)cc1OC

IC50 [14]: 1.31 to 1.62 µM | IC50 [5]: 1.31 to 1.62 µM | IC50 [9]: 1.31 to 1.62 µM
SMILES: COc1ccc(S(=O)(=O)Nc2cccnc2Nc2ccc(O)cc2)cc1 [ABT-751]
IC50 [8]: 1.31 to 1.62 µM

GI50 [16]: 1.3 to 8.2 µM | GI50 [17]: 1.3 to 8.2 µM | GI50 [18]: 1.3 to 8.2 µM | GI50 [19]: 1.3 to 8.2 µM
SMILES: COc1ccc(/C=C/C(=O)c2cc(OC)c(OC)c(OC)c2)cc1OCc1cn(Cc2ccc(N)cc2)nn1

IC50 [20]: 2.06 to 7.47 µM
SMILES: CN1CCN(Cc2cn(-c3ccc4ncnc(Nc5ccc(OCc6cccc(F)c6)c(Cl)c5)c4c3)nn2)CC1
IC50 [21]: 2.06 to 7.47 µM | IC50 [22]: 2.06 to 7.47 µM

IC50 [23]: 1.52 to 10.4 µM | IC50 [24]: 1.52 to 10.4 µM | IC50 [25]: 1.52 to 10.4 µM
SMILES: COc1cc(/C=C/C(=O)c2ccc(OCCCn3cc(CSc4nncs4)nn3)cc2)cc(OC)c1OC

GI50 [2]: 27.7 to 85.7 µg/mL (≈ 71.1 to 220 µM) | GI50 [26]: 27.7 to 85.7 µg/mL (≈ 71.1 to 220 µM)
SMILES: COc1ccc(Cn2cc(CNC(=O)c3cc(-c4ccccc4)on3)nn2)cc1

SMILES: Cc1ccc(-c2nn(Cc3cn(Cc4ccccc4F)nn3)c(=O)o2)cc1
GI50 [16]: 0.82 to 2.39 µM | GI50 [18]: 0.82 to 2.39 µM | GI50 [27]: 0.82 to 2.39 µM | GI50 [19]: 0.82 to 2.39 µM

IC50 [28]: > 100 µg/mL | IC50 [24]: > 100 µg/mL | IC50 [29]: 43.5 µg/mL (≈ 52.6 µM)
SMILES: Cc1c(C2=NN(C(=S)NCc3ccccc3)C(c3ccccc3)C2)nnn1-c1ccc(-n2nnc(C3=NN(C(=S)NCc4ccccc4)C(c4ccccc4)C3)c2C)cc1 (stereo not drawn)

GI50 [2]: 27.7 to 85.7 µg/mL (≈ 73.4 to 227 µM) | GI50 [26]: 27.7 to 85.7 µg/mL (≈ 73.4 to 227 µM)
SMILES: O=C(NCc1cn(Cc2ccc(F)cc2)nn1)c1cc(-c2ccccc2)on1

IC50 [4]: 7.1 to 13.4 µM | IC50 [10]: 7.1 to 13.4 µM
SMILES: O=C(Nc1ccc(-n2cc(Oc3ccc(-c4cc(-c5ccc(Oc6cn(-c7ccc(NC(=O)[C@@H]8CCCN8)cc7)nn6)cc5)cc(-c5ccc(Oc6cn(-c7ccc(NC(=O)[C@@H]8CCCN8)cc7)nn6)cc5)c4)cc3)nn2)cc1)[C@@H]1CCCN1
IC50 [30]: > 40 µM
